The numbers were not newly measured in patent US7226619B1, “Material for controlling diversion of medications” (PharmoRx Inc., priority 2004, dated 2007), which cites them from elsewhere.

Read-outs that look alike come from different tables or passages of the source.

In data set [1] the target is 2D6 component of the P450 metabolic system (Homo sapiens, UniProt P10635).
For data set [2] the following is noted: oxymorphone vs parent oxycodone; per Richard B. Patt, American Pain Society Bulletin 6(4), 1996.

Sequence of 2D6 component of the P450 metabolic system (P10635 whole entry): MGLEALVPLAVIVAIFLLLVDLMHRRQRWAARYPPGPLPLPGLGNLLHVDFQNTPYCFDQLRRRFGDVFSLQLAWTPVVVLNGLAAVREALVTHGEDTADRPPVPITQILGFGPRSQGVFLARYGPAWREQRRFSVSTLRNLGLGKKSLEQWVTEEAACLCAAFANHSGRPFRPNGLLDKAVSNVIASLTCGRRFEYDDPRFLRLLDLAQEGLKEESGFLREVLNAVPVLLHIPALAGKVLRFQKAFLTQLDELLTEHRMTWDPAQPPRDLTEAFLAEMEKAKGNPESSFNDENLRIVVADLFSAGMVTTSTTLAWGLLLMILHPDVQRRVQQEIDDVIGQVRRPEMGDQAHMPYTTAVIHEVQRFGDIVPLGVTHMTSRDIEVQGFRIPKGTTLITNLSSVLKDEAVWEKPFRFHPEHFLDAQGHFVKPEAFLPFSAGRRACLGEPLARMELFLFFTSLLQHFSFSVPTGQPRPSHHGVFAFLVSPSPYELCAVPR

Turning to `COC(=O)C1=CO[C@@H](C)[C@H]2CN3CCc4c([nH]c5ccccc45)[C@@H]3C[C@H]12` [ajmalicine], the “inhibitor of 2D6 (in words)” value in data set [1] (qualitative statement, no data) is “strong inhibitors”.
Turning to `CN/C(=N/CCSCc1nc[nH]c1C)NC#N` [cimetidine], the “inhibitor of 2D6 (in words)” value in data set [1] is “strong inhibitors”.
As for `COc1ccc(CN(CCN(C)C)c2ccccn2)cc1` [mepyramine], the “inhibitor of 2D6 (in words)” value in data set [1] was “strong inhibitors”.
Consider `CN1CC[C@]23c4c5ccc(O)c4O[C@H]2C(=O)CC[C@@]3(O)[C@H]1C5` [oxymorphone], for which the “effectiveness as an agonist relative to oxycodone” value in data set [2] was “at least 10 times”.
In the case of `Fc1ccc([C@@H]2CCNC[C@H]2COc2ccc3c(c2)OCO3)cc1` [paroxetine], in data set [1] (qualitative statement, no data), the “inhibitor of 2D6 (in words)” value is given as “strong inhibitors”.
Regarding `C=C[C@H]1C[N@@]2CC[C@H]1C[C@@H]2[C@@H](O)c1ccnc2ccc(OC)cc12` [quinidine], in data set [1] (qualitative statement, no data), the “inhibitor of 2D6 (in words)” value is on record as “strong inhibitors”.
For `COC(=O)[C@H]1[C@H]2C[C@@H]3c4[nH]c5cc(OC)ccc5c4CCN3C[C@H]2C[C@@H](OC(=O)c2cc(OC)c(OC)c(OC)c2)[C@@H]1OC` [reserpine], in data set [1], the “inhibitor of 2D6 (in words)” value is on record as “strong inhibitors”.
